Experimental findings from patent publication US20230271954A1 (Gossamer Bio Services, Inc., priority 2020, published 2023) are described below.

One assay concerns the target DGKα (Homo sapiens, UniProt P23743). Nature of the assay: DGKα biochemical assay (ADP-Glo). Particulars: read-out: DGK α IC50. The method, boiled down: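 ADP-Glo kinase assay using OAG/PS (1:2) lipid substrate, sonicated, in HEPES pH 7.0 buffer with MgCl2, CaCl2, DTT, BSA, Triton X-100. Enzyme preincubated with compound 30 min at RT; substrate with ATP (DGKα: 400 μM) added, 45 min RT. Luminescence read; % inhibition vs DMSO and no-enzyme controls.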
(In ADP-Glo the light output rises with the ADP produced.)

A further assay deals with T1, DGKζ (Homo sapiens, UniProt Q13574).
T1 construct: purchased Carna 12-110
As to the kind of experiment: DGKζ biochemical assay (ADP-Glo). The settings on record: read-out: DGK ζ IC50.

Where a name gives a salt, the structure may show the parent alone. Some results are limits rather than exact numbers.

Chain of DGKα (P23743 whole entry): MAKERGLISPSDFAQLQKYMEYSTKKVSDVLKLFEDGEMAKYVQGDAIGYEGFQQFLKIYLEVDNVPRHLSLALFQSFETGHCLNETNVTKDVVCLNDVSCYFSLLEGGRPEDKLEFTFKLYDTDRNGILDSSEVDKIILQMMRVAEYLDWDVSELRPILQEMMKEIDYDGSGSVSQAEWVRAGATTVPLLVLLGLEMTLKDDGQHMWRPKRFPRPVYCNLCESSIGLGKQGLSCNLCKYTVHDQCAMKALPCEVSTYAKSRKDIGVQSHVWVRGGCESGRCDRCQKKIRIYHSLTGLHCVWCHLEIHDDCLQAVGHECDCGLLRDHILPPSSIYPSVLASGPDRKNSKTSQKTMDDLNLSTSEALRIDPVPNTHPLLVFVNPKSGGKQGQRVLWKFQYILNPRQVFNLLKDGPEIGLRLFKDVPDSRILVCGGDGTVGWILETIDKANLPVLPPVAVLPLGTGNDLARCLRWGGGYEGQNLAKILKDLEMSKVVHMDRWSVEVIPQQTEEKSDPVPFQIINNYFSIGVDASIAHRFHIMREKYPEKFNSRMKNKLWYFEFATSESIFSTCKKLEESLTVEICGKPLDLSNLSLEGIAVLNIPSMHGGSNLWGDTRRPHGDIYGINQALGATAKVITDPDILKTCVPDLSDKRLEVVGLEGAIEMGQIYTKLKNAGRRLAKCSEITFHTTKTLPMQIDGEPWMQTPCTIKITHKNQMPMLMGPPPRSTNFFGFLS
T1 sequence (Q13574 1-929 isoform Q13574-4): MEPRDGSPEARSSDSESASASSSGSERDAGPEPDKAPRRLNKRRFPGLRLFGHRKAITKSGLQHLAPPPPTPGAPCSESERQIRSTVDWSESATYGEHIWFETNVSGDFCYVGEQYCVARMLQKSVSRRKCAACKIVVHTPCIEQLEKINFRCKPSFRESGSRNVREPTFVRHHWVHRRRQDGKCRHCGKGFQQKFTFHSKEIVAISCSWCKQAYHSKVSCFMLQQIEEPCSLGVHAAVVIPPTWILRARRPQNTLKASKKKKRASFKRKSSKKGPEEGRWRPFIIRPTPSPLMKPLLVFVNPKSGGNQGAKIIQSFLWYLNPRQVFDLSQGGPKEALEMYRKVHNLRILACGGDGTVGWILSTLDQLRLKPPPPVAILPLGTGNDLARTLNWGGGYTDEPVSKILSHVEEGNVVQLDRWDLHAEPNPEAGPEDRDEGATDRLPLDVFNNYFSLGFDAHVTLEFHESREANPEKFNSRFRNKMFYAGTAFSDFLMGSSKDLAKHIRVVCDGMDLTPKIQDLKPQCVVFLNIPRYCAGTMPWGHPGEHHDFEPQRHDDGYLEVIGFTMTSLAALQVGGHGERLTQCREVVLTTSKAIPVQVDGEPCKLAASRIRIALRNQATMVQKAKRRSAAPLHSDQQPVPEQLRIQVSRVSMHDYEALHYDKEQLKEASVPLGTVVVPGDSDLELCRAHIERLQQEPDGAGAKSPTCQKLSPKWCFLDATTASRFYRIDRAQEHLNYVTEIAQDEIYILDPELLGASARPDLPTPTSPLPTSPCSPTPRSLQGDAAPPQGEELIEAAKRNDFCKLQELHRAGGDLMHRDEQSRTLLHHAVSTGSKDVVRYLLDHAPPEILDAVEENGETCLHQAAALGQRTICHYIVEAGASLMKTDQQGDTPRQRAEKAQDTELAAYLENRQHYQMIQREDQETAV

As a reminder, the IC50 is the concentration needed to halve the response being measured. `Cn1c(=O)c(C#N)c(N(C)[C@H]2CC[C@H](N(CC3CCC3)c3ccc(CCN4CCOCC4)cc3)CC2)c2nc(C#N)ccc21` [Example 172, trans-8-((4-((cyclobutylmethyl)(4-(2-morpholinoethyl)phenyl)amino)cyclohexyl)(methyl)amino)-5-methyl-6-oxo-5,6-dihydro-1,5-naphthyridine-2,7-dicarbonitrile]: the IC50 on DGKα and at DGKζ was at least 1000 nM each time.
For the compound `COc1cccc(N(CC2CC2)[C@H]2CC[C@@H](N(C)c3cc(=O)n(C)c4ccc(C#N)nc34)CC2)c1` [Example 12, cis-8-((4-((cyclopropylmethyl)(3-methoxyphenyl)amino)cyclohexyl)(methyl)amino)-5-methyl-6-oxo-5,6-dihydro-1,5-naphthyridine-2-carbonitrile], the IC50 was 100 to 1000 nM at DGKα and at least 1000 nM at DGKζ.
For `COc1ccc(N(C2CC2)[C@H]2CC[C@H](N(C)c3c(C#N)c(=O)n(C)c4ccc(Cl)nc34)CC2)nc1` [Example 3J, trans-6-chloro-4-((4-(cyclopropyl(5-methoxypyridin-2-yl)amino)cyclohexyl)(methyl)amino)-1-methyl-2-oxo-1,2-dihydro-1,5-naphthyridine-3-carbonitrile] the same measures were 10 to 100 nM and 100 to 1000 nM.
On to `Cn1c(=O)cc(N(C)[C@H]2CC[C@@H](N(CC3CC3)c3ccc(Cl)cc3)CC2)c2nc(C#N)ccc21` [Example 7, cis-8-((4-((4-chlorophenyl)(cyclopropylmethyl)amino)cyclohexyl)(methyl)amino)-5-methyl-6-oxo-5,6-dihydro-1,5-naphthyridine-2-carbonitrile], for which the values for the IC50 at DGKα and at DGKζ were 10 to 100 nM and at least 1000 nM, respectively.
`Cc1cc(F)ccc1N(CC1CN(C)CCO1)[C@H]1CC[C@H](N(C)c2c(C#N)c(=O)n(C)c3ccc(C#N)nc23)CC1` (stereo partly drawn) [Example 186, trans-8-((-4-((4-fluoro-2-methylphenyl)((4-methylmorpholinium-2-yl)methyl)amino)cyclohexyl) (methyl)amino)-5-methyl-6-oxo-5,6-dihydro-1,5-naphthyridine-2,7-dicarbonitrile trifluoroacetate]: the IC50 at DGKα is 100 to 1000 nM; at DGKζ, at least 1000 nM.
With `Cc1cc(F)c(F)cc1N(CC1CCC1)[C@H]1CC[C@H](N(C)c2c(C#N)c(=O)n(C)c3ccc(C#N)nc23)CC1` [Example 138, trans-8-((4-((cyclobutylmethyl)(4,5-difluoro-2-methylphenyl)amino)cyclohexyl)(methyl)amino)-5-methyl-6-oxo-5,6-dihydro-1,5-naphthyridine-2,7-dicarbonitrile], the IC50 at DGKα and on DGKζ was at least 1000 nM in each case.
Consider `Cn1c(=O)c(C#N)c(N(C)[C@H]2CC[C@H](N(CC3CC3)c3ccc(F)c(OC(F)F)c3)CC2)c2nc(C#N)ccc21` [Example 76], for which the IC50 on DGKα and on DGKζ was 100 to 1000 nM throughout.
For `Cn1c(=O)c(C#N)c(N(C)[C@H]2CC[C@@H](N(CC3CC3)c3cccc(F)c3)CC2)c2nc(C#N)ccc21` [Example 26, cis-8-((4-((cyclopropylmethyl)(3-fluorophenyl)amino)cyclohexyl)(methyl)amino)-5-methyl-6-oxo-5,6-dihydro-1,5-naphthyridine-2,7-dicarbonitrile], the IC50 was 10 to 100 nM at DGKα and 100 to 1000 nM at DGKζ.
As to `Cn1c(=O)c(C#N)c(N(C)[C@H]2CC[C@@H](N(c3ccc(F)cc3)C3CC3)CC2)c2nc(C#N)ccc21` [Example 50, cis-8-((4-(cyclopropyl(4-fluorophenyl)amino)cyclohexyl)(methyl)amino)-5-methyl-6-oxo-5,6-dihydro-1,5-naphthyridine-2,7-dicarbonitrile], the IC50 is under 10 nM at DGKα and 100 to 1000 nM on DGKζ.
Consider `Cn1c(=O)c(C#N)c(N[C@H]2CC[C@H](N(CC3CC3)c3ccccc3)CC2)c2nc(Cl)ccc21` [Example 3B, trans-6-Chloro-4-((4-((cyclopropylmethyl)(phenyl)amino)cyclohexyl)amino)-1-methyl-2-oxo-1,2-dihydro-1,5-naphthyridine-3-carbonitrile], for which the IC50 was under 10 nM at DGKα and at least 1000 nM at DGKζ.
For `Cn1c(=O)c(C#N)c(N(C)[C@H]2CC[C@@H](N(CC3CCC3)c3ccc(F)cc3C(F)F)CC2)c2nc(C#N)ccc21` [Example 180, cis-8-((-4-((cyclobutylmethyl)(2-(difluoromethyl)-4-fluorophenyl)amino)cyclohexyl)(methyl)amino)-5-methyl-6-oxo-5,6-dihydro-1,5-naphthyridine-2,7-dicarbonitrile] the same measures were 100 to 1000 nM and 100 to 1000 nM.
The like results for `Cn1c(=O)cc(N(C)[C@H]2CC[C@@H](N(CC3CCC3)c3ccc(F)cc3)CC2)c2nc(C#N)ccc21` [Example 43, cis-8-((-4-((cyclobutylmethyl)(4-fluorophenyl)amino)cyclohexyl)(methyl)amino)-5-methyl-6-oxo-5,6-dihydro-1,5-naphthyridine-2-carbonitrile] were, in that order, under 10 nM and 100 to 1000 nM.
Regarding `O=C(N[C@H]1CC[C@@H](N(CC2CC2)c2ccccc2)CC1)c1c[nH]c2cccnc12` [Example 4F, cis-N-(4-((Cyclopropylmethyl)(phenyl)amino)cyclohexyl)-1H-pyrrolo[3,2-b]pyridine-3-carboxamide], the 50% inhibitory concentration (IC50) at DGKα and at DGKζ was at least 1000 nM throughout.
Take `Cn1c(=O)c(C#N)c(N(C)[C@H]2CC[C@@H](N(C[C@H]3CCOC3)c3ccc(F)cc3)CC2)c2nc(C#N)ccc21` [Example 66]: the IC50 fell in the range of 10 to 100 nM on DGKα and 100 to 1000 nM on DGKζ.
The like results for `Cc1cc(N(CC2CCOC2)[C@H]2CC[C@@H](N(C)c3cc(=O)n(C)c4ccc(C#N)nc34)CC2)ccc1F` (stereo partly drawn) [Example 157, cis-8-((-4-((4-fluoro-3-methylphenyl) ((tetrahydrofuran-3-yl)methyl)amino)cyclohexyl) (methyl)amino)-5-methyl-6-oxo-5,6-dihydro-1,5-naphthyridine-2-carbonitrile] were, in that order, 10 to 100 nM and 100 to 1000 nM.
In the case of `CN1C(=O)COc2ccc(N(CC3COCCO3)[C@H]3CC[C@@H](N(C)c4c(C#N)c(=O)n(C)c5ccc(C#N)nc45)CC3)cc21` (stereo partly drawn) [Example 187, cis-8-((4-(((1,4-dioxan-2-yl)methyl)(4-methyl-3-oxo-3,4-dihydro-2H-benzo[b][1,4]oxazin-6-yl)amino)cyclohexyl)(methyl)amino)-5-methyl-6-oxo-5,6-dihydro-1,5-naphthyridine-2,7-dicarbonitrile], the 50% inhibitory concentration (IC50) on DGKα and at DGKζ was 100 to 1000 nM in each case.
Turning to `Cn1c(=O)c(C#N)c(N(C)[C@H]2CC[C@@H](N(CC3CC3)c3cccc4c3oc(=O)n4C)CC2)c2nc(C#N)ccc21` [Example 200, cis-8-((-4-((cyclopropylmethyl)(3-methyl-2-oxo-2,3-dihydrobenzo[d]oxazol-7-yl)amino)cyclohexyl) (methyl)amino)-5-methyl-6-oxo-5,6-dihydro-1,5-naphthyridine-2,7-dicarbonitrile], the IC50 on DGKα and on DGKζ was at least 1000 nM in each case.
In the case of `COc1cc(N(C2CC2)[C@H]2CC[C@H](N(C)c3cc(=O)n(C)c4ccc(C#N)nc34)CC2)ccc1F` [Example 93], the IC50 was 100 to 1000 nM on DGKα and at least 1000 nM at DGKζ.
For the compound `Cc1cc(F)ccc1N(CC1CC1)[C@H]1CC[C@H](N(C)c2cc(=O)n(C)c3ccc(C#N)nc23)CC1` [Example 72, trans-8-((4-((cyclopropylmethyl)(4-fluoro-2-methylphenyl)amino)cyclohexyl)(methyl)amino)-5-methyl-6-oxo-5,6-dihydro-1,5-naphthyridine-2-carbonitrile], the IC50 on DGKα is at least 1000 nM; on DGKζ, 100 to 1000 nM.
Take `Cn1c(=O)c(C#N)c(N(C)[C@H]2CC[C@H](N(CC3CC3)c3ccc(F)c(OC4CC4)c3)CC2)c2nc(C#N)ccc21` [Example 135, trans-8-((-4-((3-cyclopropoxy-4-fluorophenyl) (cyclopropylmethyl)amino)cyclohexyl)(methyl)amino)-5-methyl-6-oxo-5,6-dihydro-1,5-naphthyridine-2,7-dicarbonitrile]: the IC50 on DGKα and at DGKζ was 10 to 100 nM throughout.
`Cc1cc2c(cc1N(CC1CCC1)[C@H]1CC[C@@H](N(C)c3c(C#N)c(=O)n(C)c4ccc(C#N)nc34)CC1)OCO2` [Example 152, cis-8-((4-((cyclobutylmethyl)(6-methylbenzo[d][1,3]dioxol-5-yl)amino)cyclohexyl)(methyl)amino)-5-methyl-6-oxo-5,6-dihydro-1,5-naphthyridine-2,7-dicarbonitrile]: the IC50 at DGKα and at DGKζ was at least 1000 nM in each case.
With `Cn1c(=O)cc(N(C)[C@H]2CC[C@@H](N(CC3CCC3)c3cc(F)cc(F)c3)CC2)c2nc(C#N)ccc21` [Example 134, cis-8-((-4-((cyclobutylmethyl)(3,5-difluorophenyl)amino)cyclohexyl)(methyl)amino)-5-methyl-6-oxo-5,6-dihydro-1,5-naphthyridine-2-carbonitrile], the IC50 on DGKα lay within 10 to 100 nM; on DGKζ, 100 to 1000 nM.
Take `Cn1c(=O)oc2ccc(N(CC3CC3)[C@H]3CC[C@@H](N(C)c4c(C#N)c(=O)n(C)c5ccc(C#N)nc45)CC3)cc21` [Example 207, cis-8-((-4-((cyclopropylmethyl)(3-methyl-2-oxo-2,3-dihydrobenzo[d]oxazol-5-yl)amino)cyclohexyl) (methyl)amino)-5-methyl-6-oxo-5,6-dihydro-1,5-naphthyridine-2,7-dicarbonitrile]: the IC50 on DGKα and at DGKζ was at least 1000 nM each time.
As for `COc1cc(N(CC2CC2)[C@H]2CC[C@@H](N(C)c3c(C#N)c(=O)n(C)c4ccc(Cl)nc34)CC2)cc(F)c1F` [Example 98], the IC50 on DGKα and on DGKζ was 100 to 1000 nM each time.
